According to US20090030024A1, “THIAZOLES AS FUNGICIDES” (priority 2005, published 2009):
Read-outs that look alike come from different tables or passages of the source.

Experiments:
[1] = system: Leptosphaeria nodorum; assay: Leptosphaeria nodorum test (wheat)/protective; type: in vivo; conditions: Parastagonospora nodorum, 240 h, protective spray, active compound concentration 1000 ppm, evaluation 10 days after inoculation, read-out: efficacy
Experimental: Leptosphaeria Nodorum Test (Wheat)/Protective [table] […] After the spray coating has dried on, the plants are sprayed with a spore suspension of Leptosphaeria nodorum. The plants remain in an incubation cabin at 20° C. and 100% relative atmospheric humidity for 48 hours. The plants are placed in a greenhouse at a temperature of about 20° C. and a relative atmospheric humidity of 80%.

[2] = logP determination by retention times (calibration with alkan-2-ones)
[3] = system: Fusarium graminearum; assay: whole plant or invertebrate; type: in vivo; conditions: in Hordeum vulgare, 96 h, read-out: efficacy
[4] = system: Phytophthora infestans; assay: whole plant or invertebrate; type: in vivo; conditions: in Solanum lycopersicum, 168 h, read-out: efficacy
[5] = logP, * HPLC reversed-phase C18, 40° C., mobile phase 0.1% aqueous formic acid and acetonitrile, linear gradient 10% to 95% acetonitrile

Compound | pest or weed control at 1000 ppm [1] [%] | chromatographic logP [2, 5] | pest or weed control at 1000 ppm [3] [%] | pest or weed control at 500 ppm [4] [%] | chromatographic logP [2]
Cc1nc(C)c(-c2ccnc(Nc3ccc(F)cc3F)n2)s1 [Example 759, N-(2,4-difluorophenyl)-4-(2,4-dimethyl-1,3-thiazol-5-yl)pyrimidine-2-amine] | ≥ 70 | 2.8 | – | – | –
COc1cc(Nc2nccc(-c3sc(C)nc3C)n2)cc(OC)c1OC [Example 182, 4-(2,4-dimethyl-1,3-thiazol-5-yl)-N-(3,4,5-trimethoxyphenyl)pyrimidine-2-amine] | ≥ 70 | – | ≥ 70 | ≥ 70 | 2.1
CCc1nc(C)c(-c2ccnc(Nc3ccccc3)n2)s1 [Example 243, 4-(2-ethyl-4-methyl-1,3-thiazol-5-yl)-N-phenylpyrimidine-2-amine] | – | – | ≥ 70 | ≥ 70 | 3.07
Cc1nc(C)c(-c2ccnc(Nc3ccccc3)n2)s1 [Example 190, 4-(2,4-dimethyl-1,3-thiazol-5-yl)-N-phenylpyrimidine-2-amine] | ≥ 70 | – | ≥ 70 | – | 2.4
CC(=O)c1cccc(Nc2nccc(-c3sc(C4CC4)nc3C)n2)c1 [Example 7, 1-(3-{[4-(2-cyclopropyl-4-methyl-1,3-thiazol-5-yl)pyrimidin-2-yl]amino}phenyl)ethanone] | ≥ 70 | – | – | – | 2.88
COc1cc(Nc2nccc(-c3sc(C4CC4)nc3C)n2)cc(OC)c1OC [Example 222, 4-(2-cyclopropyl-4-methyl-1,3-thiazol-5-yl)-N-(3,4,5-trimethoxyphenyl)pyrimidine-2-amine] | – | – | ≥ 70 | – | 2.77
COc1ccc(Nc2nccc(-c3sc(C(C)C)nc3C)n2)cn1 [Example 247, 4-(2-isopropyl-4-methyl-1,3-thiazol-5-yl)-N-(6-methoxypyridin-3-yl)pyrimidine-2-amine] | ≥ 70 | – | ≥ 70 | ≥ 70 | 2.76
CCc1nc(C)c(-c2ccnc(Nc3ccc(NC(=O)OCCOC)cc3)n2)s1 [Example 73, 2-methoxyethyl-(4-{[4-(2-ethyl-4-methyl-1,3-thiazol-5-yl)pyrimidin-2-yl]amino}phenyl)carbamate] | ≥ 70 | – | – | ≥ 70 | 2.36
Cc1nc(C)c(-c2ccnc(Nc3ccc(N(C)C)c(Cl)c3)n2)s1 [Example 62, 2-chloro-N4-[4-(2,4-dimethyl-1,3-thiazol-5-yl)pyrimidin-2-yl]-N1,N1-dimethylbenzene-1,4-diamine] | ≥ 70 | – | – | – | 2.06
CCc1nc(C)c(-c2ccnc(Nc3cc(OC)c(OC)c(OC)c3)n2)s1 [Example 235, 4-(2-ethyl-4-methyl-1,3-thiazol-5-yl)-N-(3,4,5-trimethoxyphenyl)pyrimidine-2-amine] | – | – | ≥ 70 | ≥ 70 | 2.61
CCOC(=O)c1cccc(Nc2nccc(-c3sc(C(C)C)nc3C)n2)c1 [Example 375, ethyl-3-{[4-(2-isopropyl-4-methyl-1,3-thiazol-5-yl)pyrimidin-2-yl]amino}benzoate] | – | – | ≥ 70 | – | 3.83
CCc1nc(C)c(-c2ccnc(Nc3ccc(OC)nc3)n2)s1 [Example 240, 4-(2-ethyl-4-methyl-1,3-thiazol-5-yl)-N-(6-methoxypyridin-3-yl)pyrimidine-2-amine] | ≥ 70 | – | ≥ 70 | – | 2.33
CCc1nc(C)c(-c2ccnc(Nc3cccc(C(C)=O)c3)n2)s1 [Example 9, 1-(3-{[4-(2-ethyl-4-methyl-1,3-thiazol-5-yl)pyrimidin-2-yl]amino}phenyl)ethanone] | – | – | ≥ 70 | – | 2.7
Cc1nc(C(C)C)sc1-c1ccnc(Nc2cccc(O)c2)n1 [Example 151, 3-{[4-(2-isopropyl-4-methyl-1,3-thiazol-5-yl)pyrimidin-2-yl]amino}phenol] | ≥ 70 | – | ≥ 70 | – | 2.42
COc1cc(Nc2nccc(-c3sc(C(C)C)nc3C)n2)cc(OC)c1OC [Example 244, 4-(2-isopropyl-4-methyl-1,3-thiazol-5-yl)-N-(3,4,5-trimethoxyphenyl)pyrimidine-2-amine] | ≥ 70 | – | ≥ 70 | – | 2.99
CC(=O)Nc1ccc(Nc2nccc(-c3sc(C(C)C)nc3C)n2)cc1 [Example 461, N-(4-{[4-(2-isopropyl-4-methyl-1,3-thiazol-5-yl)pyrimidin-2-yl]amino}phenyl)acetamide] | ≥ 70 | 2.15 | ≥ 70 | – | –
Cc1nc(C(C)C)sc1-c1ccnc(Nc2ccccc2)n1 [Example 251, 4-(2-isopropyl-4-methyl-1,3-thiazol-5-yl)-N-phenylpyrimidine-2-amine] | ≥ 70 | – | ≥ 70 | ≥ 70 | 3.55
